{
  "source": "patent US20130136780A1",
  "about": "“CROSSLINKED POLYSACCHARIDE GEL COMPOSITIONS FOR MEDICAL AND COSMETIC APPLICATIONS” (ALLERGAN, INC., priority 2007, published 2013)",
  "origin": "cited, not measured here",
  "conditions": "osteoarthritis patient, intra-articular injection of 40 mg; Selvi et al. 2004",
  "data": [
    {"smiles": "CC(C)(C)CC(=O)OCC(=O)[C@@]12OC(C)(C)O[C@@H]1C[C@H]1[C@@H]3CCC4=CC(=O)C=C[C@]4(C)[C@@]3(F)[C@@H](O)C[C@@]12C", "note": "[triamcinolone hexacetonide]", "values": [
      {"measurement": "adverse outcome after intra-articular injection (case report)", "value": "developed acute arthritis induced by the injected triamcinolone crystals"}
    ]}
  ]
}
